# According to US11377442B2, “Small molecule agonists and antagonists of NR2F6 activity” (ZANDER THERAPEUTICS, INC., priority 2016, dated 2022):
# Read-outs that look alike come from different tables or passages of the source.
# Columns and labels:
# Format in all cases: cell-based
# NR2F6 = target: T1, NR2F6 (Homo sapiens, UniProt P10588); test: NR2F6 agonist screening, Firefly signal cmpd/DMSO
# T1 construct: expressed in transfected cells; also transient transfection
# T1 sequence (P10588 1-404): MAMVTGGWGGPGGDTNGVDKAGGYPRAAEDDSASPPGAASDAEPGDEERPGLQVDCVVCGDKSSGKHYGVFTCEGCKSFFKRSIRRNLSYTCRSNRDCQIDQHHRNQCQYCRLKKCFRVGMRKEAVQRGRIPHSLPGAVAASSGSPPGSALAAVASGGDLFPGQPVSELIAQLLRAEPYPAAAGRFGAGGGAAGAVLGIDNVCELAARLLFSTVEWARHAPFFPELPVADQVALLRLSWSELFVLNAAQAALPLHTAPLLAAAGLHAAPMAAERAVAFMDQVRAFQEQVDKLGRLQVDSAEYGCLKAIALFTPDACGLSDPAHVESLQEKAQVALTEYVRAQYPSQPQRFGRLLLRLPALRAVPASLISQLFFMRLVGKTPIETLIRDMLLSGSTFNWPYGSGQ
# HEK293 pGL4 = test: Firefly_pGL signal, cmpd/DMSO (pGL4 control cells); conditions: Homo sapiens
# Renilla [1] = test: Renilla signal, LBD, cmpd/DMSO (NR2F6 LBD transfected cells)
# Renilla [2] = test: Renilla signal in NR2F6 agonist screening, cmpd/DMSO; conditions: Renilla
# NR2F6 LBD = target: T2, NR2F6 LBD (Homo sapiens, UniProt P10588); test: NR2F6 LBD transient transfection
# T2 construct: expressed in transfected cells
# T2 sequence (P10588 165-393 limits assumed): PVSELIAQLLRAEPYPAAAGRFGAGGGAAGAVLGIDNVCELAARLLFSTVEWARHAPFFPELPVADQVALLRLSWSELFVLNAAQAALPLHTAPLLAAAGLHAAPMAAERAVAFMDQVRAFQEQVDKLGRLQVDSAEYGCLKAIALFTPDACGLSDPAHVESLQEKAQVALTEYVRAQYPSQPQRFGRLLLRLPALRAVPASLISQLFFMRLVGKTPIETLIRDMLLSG
# Method in brief: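 LBD-transfected cells treated at 40, 10, 2 and 0.5 μM (4 replicates); cytotoxicity measured in parallel, normalized to DMSO (0%) and zero signal (100%). Higher concentrations excluded where signal loss reflected toxicity.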
# [3] = HEK293, 0.5 uM, read-out: Firefly pGL4, cmpd/DMSO (mean)
# [4] = HEK293, 2 uM, read-out: Firefly pGL4, cmpd/DMSO (mean)
# [5] = HEK293, 10 uM, read-out: Firefly pGL4, cmpd/DMSO (mean)
# [6] = HEK293, 40 uM, read-out: Firefly pGL4, cmpd/DMSO (mean)
# [7] = HEK293, pGL4, 1% FBS, 0.5 uM, read-out: Firefly, pGL4, 1% FBS, cmpd/DMSO (mean)
# [8] = HEK293, pGL4, 1% FBS, 2 uM, read-out: Firefly, pGL4, 1% FBS, cmpd/DMSO (mean)
# [9] = HEK293, pGL4, 1% FBS, 10 uM, read-out: Firefly, pGL4, 1% FBS, cmpd/DMSO (mean)
# [10] = HEK293, pGL4, 1% FBS, 40 uM, read-out: Firefly, pGL4, 1% FBS, cmpd/DMSO (mean)
# [11] = HEK293, pGL4, 10% FBS, 0.5 uM, read-out: Firefly, pGL4, 10% FBS, cmpd/DMSO (mean)
# [12] = HEK293, pGL4, 10% FBS, 2 uM, read-out: Firefly, pGL4, 10% FBS, cmpd/DMSO (mean)
# [13] = HEK293, pGL4, 10% FBS, 10 uM, read-out: Firefly, pGL4, 10% FBS, cmpd/DMSO (mean)
# [14] = HEK293, pGL4, 10% FBS, 40 uM, read-out: Firefly, pGL4, 10% FBS, cmpd/DMSO (mean)
# [15] = read-out: Renilla F4, cmpd/DMSO (mean)
# [16] = F4, 1% FBS, read-out: Renilla, F4, 1% FBS, cmpd/DMSO (mean)
# [17] = F4, 10% FBS, read-out: Renilla, F4, 10% FBS, cmpd/DMSO (mean)
smiles,measurement,setting,value
O=S1(=O)C[C@H](NCC2CCCO2)[C@@H](S(=O)(=O)c2cccs2)C1 (stereo partly drawn) [Compound D134],"Firefly F4, cmpd/DMSO (mean)",NR2F6; 0.5 uM,1.5
same,"Firefly F4, cmpd/DMSO (mean)",NR2F6; 2 uM,2.3
same,"Firefly F4, cmpd/DMSO (mean)",NR2F6; 10 uM,2.1
same,"Firefly F4, cmpd/DMSO (mean)",NR2F6; 40 uM,2.8
same,"F4, Firefly/Renilla for S/B(F4) > 3","NR2F6; 1% FBS, 40 uM",2.6
same,"Firefly, F4/pGL4 for S/B(F4) > 3","NR2F6; 1% FBS, 40 uM",4.0
same,"F4, Firefly/Renilla for S/B(F4) > 3","NR2F6; 10% FBS, 40 uM",2.3
same,"Firefly, F4/pGL4 for S/B(F4) > 3","NR2F6; 10% FBS, 40 uM",2.3
same,"Firefly, F4, 1% FBS, cmpd/DMSO (mean)","NR2F6; 1% FBS, 0.5 uM",1.0
same,"Firefly, F4, 1% FBS, cmpd/DMSO (mean)","NR2F6; 1% FBS, 2 uM",1.2
same,"Firefly, F4, 1% FBS, cmpd/DMSO (mean)","NR2F6; 1% FBS, 10 uM",2.0
same,"Firefly, F4, 1% FBS, cmpd/DMSO (mean)","NR2F6; 1% FBS, 40 uM",5.4
same,"Firefly, F4, 10% FBS, cmpd/DMSO (mean)","NR2F6; 10% FBS, 0.5 uM",1.1
same,"Firefly, F4, 10% FBS, cmpd/DMSO (mean)","NR2F6; 10% FBS, 2 uM",1.0
same,"Firefly, F4, 10% FBS, cmpd/DMSO (mean)","NR2F6; 10% FBS, 10 uM",2.1
same,"Firefly, F4, 10% FBS, cmpd/DMSO (mean)","NR2F6; 10% FBS, 40 uM",4.6
same,fold induction at 0.5 µM,HEK293 pGL4; [3],1
same,fold induction at 2 µM,HEK293 pGL4; [4],1.3
same,fold induction at 10 µM,HEK293 pGL4; [5],1.6
same,fold induction at 40 µM,HEK293 pGL4; [6],1.7
same,fold induction at 0.5 µM,HEK293 pGL4; [7],1
same,fold induction at 2 µM,HEK293 pGL4; [8],1.3
same,fold induction at 10 µM,HEK293 pGL4; [9],1.3
same,fold induction at 40 µM,HEK293 pGL4; [10],1.4
same,fold induction at 0.5 µM,HEK293 pGL4; [11],1.2
same,fold induction at 2 µM,HEK293 pGL4; [12],1.3
same,fold induction at 10 µM,HEK293 pGL4; [13],1.7
same,fold induction at 40 µM,HEK293 pGL4; [14],2
same,"Renilla LBD, cmpd/DMSO (mean)",Renilla [1]; 0.5 uM,0.9
same,"Renilla LBD, cmpd/DMSO (mean)",Renilla [1]; 2 uM,0.9
same,"Renilla LBD, cmpd/DMSO (mean)",Renilla [1]; 10 uM,1.0
same,"Renilla LBD, cmpd/DMSO (mean)",Renilla [1]; 40 uM,0.7
same,fold induction at 0.5 µM,Renilla [2]; [15],1.1
same,fold induction at 2 µM,Renilla [2]; [15],1.2
same,fold induction at 10 µM,Renilla [2]; [15],1.3
same,fold induction at 40 µM,Renilla [2]; [15],1.5
same,fold induction at 0.5 µM,Renilla [2]; [16],1
same,fold induction at 2 µM,Renilla [2]; [16],1.2
same,fold induction at 10 µM,Renilla [2]; [16],1.4
same,fold induction at 40 µM,Renilla [2]; [16],2.1
same,fold induction at 0.5 µM,Renilla [2]; [17],1
same,fold induction at 2 µM,Renilla [2]; [17],1
same,fold induction at 10 µM,Renilla [2]; [17],1.3
same,fold induction at 40 µM,Renilla [2]; [17],2
same,"Firefly LBD, cmpd/DMSO (mean)",NR2F6 LBD; 0.5 uM,1.5
same,"Firefly LBD, cmpd/DMSO (mean)",NR2F6 LBD; 2 uM,1.5
same,"Firefly LBD, cmpd/DMSO (mean)",NR2F6 LBD; 10 uM,1.9
same,"Firefly LBD, cmpd/DMSO (mean)",NR2F6 LBD; 40 uM,1.8
O=S1(=O)C[C@H](NCc2ccco2)[C@@H](S(=O)(=O)c2cccs2)C1 [Compound D135],"Firefly F4, cmpd/DMSO (mean)",NR2F6; 0.5 uM,1.7
same,"Firefly F4, cmpd/DMSO (mean)",NR2F6; 2 uM,2.4
same,"Firefly F4, cmpd/DMSO (mean)",NR2F6; 10 uM,1.9
same,"Firefly F4, cmpd/DMSO (mean)",NR2F6; 40 uM,2.8
same,"F4, Firefly/Renilla for S/B(F4) > 3","NR2F6; 1% FBS, 40 uM",1.9
same,"Firefly, F4/pGL4 for S/B(F4) > 3","NR2F6; 1% FBS, 40 uM",3.0
same,"F4, Firefly/Renilla for S/B(F4) > 3","NR2F6; 10% FBS, 40 uM",1.9
same,"Firefly, F4/pGL4 for S/B(F4) > 3","NR2F6; 10% FBS, 40 uM",2.3
same,"Firefly, F4, 1% FBS, cmpd/DMSO (mean)","NR2F6; 1% FBS, 0.5 uM",1.2
same,"Firefly, F4, 1% FBS, cmpd/DMSO (mean)","NR2F6; 1% FBS, 2 uM",1.6
same,"Firefly, F4, 1% FBS, cmpd/DMSO (mean)","NR2F6; 1% FBS, 10 uM",1.1
same,"Firefly, F4, 1% FBS, cmpd/DMSO (mean)","NR2F6; 1% FBS, 40 uM",3.3
same,"Firefly, F4, 10% FBS, cmpd/DMSO (mean)","NR2F6; 10% FBS, 0.5 uM",1.0
same,"Firefly, F4, 10% FBS, cmpd/DMSO (mean)","NR2F6; 10% FBS, 2 uM",0.7
same,"Firefly, F4, 10% FBS, cmpd/DMSO (mean)","NR2F6; 10% FBS, 10 uM",1.8
same,"Firefly, F4, 10% FBS, cmpd/DMSO (mean)","NR2F6; 10% FBS, 40 uM",3.7
same,fold induction at 0.5 µM,HEK293 pGL4; [3],1
same,fold induction at 2 µM,HEK293 pGL4; [4],1.6
same,fold induction at 10 µM,HEK293 pGL4; [5],1.4
same,fold induction at 40 µM,HEK293 pGL4; [6],1.3
same,fold induction at 0.5 µM,HEK293 pGL4; [7],1
same,fold induction at 2 µM,HEK293 pGL4; [8],1
same,fold induction at 10 µM,HEK293 pGL4; [9],0.8
same,fold induction at 40 µM,HEK293 pGL4; [10],1.1
same,fold induction at 0.5 µM,HEK293 pGL4; [11],0.9
same,fold induction at 2 µM,HEK293 pGL4; [12],1.1
same,fold induction at 10 µM,HEK293 pGL4; [13],1.7
same,fold induction at 40 µM,HEK293 pGL4; [14],1.6
same,"Renilla LBD, cmpd/DMSO (mean)",Renilla [1]; 0.5 uM,0.9
same,"Renilla LBD, cmpd/DMSO (mean)",Renilla [1]; 2 uM,0.9
same,"Renilla LBD, cmpd/DMSO (mean)",Renilla [1]; 10 uM,0.8
same,"Renilla LBD, cmpd/DMSO (mean)",Renilla [1]; 40 uM,0.9
same,fold induction at 0.5 µM,Renilla [2]; [15],0.9
same,fold induction at 2 µM,Renilla [2]; [15],1.2
same,fold induction at 10 µM,Renilla [2]; [15],1
same,fold induction at 40 µM,Renilla [2]; [15],1.3
same,fold induction at 0.5 µM,Renilla [2]; [16],1
same,fold induction at 2 µM,Renilla [2]; [16],1.3
same,fold induction at 10 µM,Renilla [2]; [16],1.2
same,fold induction at 40 µM,Renilla [2]; [16],1.7
same,fold induction at 0.5 µM,Renilla [2]; [17],1
same,fold induction at 2 µM,Renilla [2]; [17],1.1
same,fold induction at 10 µM,Renilla [2]; [17],1.1
same,fold induction at 40 µM,Renilla [2]; [17],1.9
same,"Firefly LBD, cmpd/DMSO (mean)",NR2F6 LBD; 0.5 uM,1.4
same,"Firefly LBD, cmpd/DMSO (mean)",NR2F6 LBD; 2 uM,1.7
same,"Firefly LBD, cmpd/DMSO (mean)",NR2F6 LBD; 10 uM,1.6
same,"Firefly LBD, cmpd/DMSO (mean)",NR2F6 LBD; 40 uM,2.8
